{"source": "patent US20240238232A1", "about": "“COMPOSITIONS AND METHODS FOR THE REDUCTION OR TREATMENT OF INSULIN RESISTANCE AND METABOLIC CONDITIONS” (AXCELLA HEALTH INC., priority 2018, published 2024)", "format_in_all_cases": "in vivo", "key": {"[1]": {"test_system": "FATZO mouse model", "experiment": "Liver histology: NAFLD activity score, steatosis, inflammation, ballooning in FATZO mice on WDF, Example 5", "details": "4 weeks", "source_text": "(§1) NASH was induced in 60 male FATZO mice by a western diet (Research Diet #D12079B; fat 40% kcal, protein 17% kcal, carbohydrate 43% kcal) supplemented with 500 fructose in the drinking water (WDF) during a 16 week induction phase. Diets and water were available ad libitum. Littermate control male FATZO mice fed with a control diet (n=6, Purina #5008; fat 17% kcal, protein 27% kcal, carbohydrate 56% kcal) and sterile water were set up for control purpose. Mice were housed in plastic cages with microisolator. Sterilized bedding was replaced once a week. Mice were housed three per cage and maintained on a twelve hour light cycle throughout study duration. Room temperature was monitored daily and maintained at 22-25° C. Body weight was recorded every week during the induction phase.\n(§2) Following 16 weeks diet induction, 6 mice remained on control diet (group 1, Control) while 60 induced mice were randomized on body weight and plasma glucose (fed) for assignment to the following treatments. FATZO mice were administered with test articles starting at 16 weeks post western diet NASH induction for 4 weeks. Test articles were administered by oral gavage. Animals were euthanized at 20 weeks post western diet NASH induction, and tissues were harvested for analysis.\n[…], […]+G, LRQNAC, OCA and Vehicle were administered by oral gavage at a volume of 10 mL/kg throughout the study. Dosages were calculated by daily body weight. […], […]+G, LRQNAC, and Vehicle were administered twice per day (BID), while OCA was administered once a day (QD) in the morning. Mice receiving OCA once per day (QD), and one vehicle QD. Doses were administered by oral gavage at 0700 and 1800 by oral gavage for 4 weeks.\nThe liver tissues were fixed in Bouin's solution at 4° C. for 24 hours followed by baths of standard concentrations of alcohol then xylene to prepare the tissues for paraffin embedding.\nAfter being embedded in paraffin and cooled, five-micron sections were cut and stained for routine H&E and Picric Sirius Red. A section of both right and left lobes of the livers were frozen in OCT for analysis of lipid content with Oil-Red-) staining. The Aperio whole slide digital imaging system (Scan Scope C S, Vista, CA) was used for imaging. All slides were imaged at 20×. The scan time ranged from 1.5 minutes to a maximum time of 2.25 minutes. The whole images were housed and stored in their Spectrum software system and images were shot from the whole slides.\nThe livers were evaluated using the NASH liver criteria for scoring. In this mouse study, one cross section of liver for each case was analyzed with the NASH score system. According to the published NASH CRN Scoring System, this scoring system comprises of NAFLD Activity Score (NAS), fibrosis stage and identification of NASH by pattern recognition. The NAS can range from 0 to 8 and is calculated by the sum of scores of steatosis (0-3), lobular inflammation (0-3) and hepatocyte ballooning (0-2) from H&E stained sections. Fibrosis was scored (0-4) from picrosirius red stained slides. […] Steatosis, lobular inflammation, hepatocyte. balloon degeneration, fibrosis, NAS and the presence of NASH by pattern recognition were systematically assessed. In this study we evaluated one total cross section of liver per mouse in this study. […] The pathology score was determined as 0, +1, +2, or +3. The lesions were scored on location (periportal, centrilobular, and mid zonal) and fat accumulation (focal, periportal, and/or centrilobular). […]"}, "[2]": {"test_system": "FATZO mouse model", "experiment": "Blood glucose in FATZO mice on WDF, Example 5", "details": "oral gavage 4 weeks, LIVRQNAC 3000 mg/kg, LIVRQNAC+G 3,885 mg/kg, LRQNAC 2,469 mg/kg BID, OCA QD", "source_text": "as §1\nas §2, with “Test articles were administered by oral gavage. Animals were euthanized at 20 weeks post western diet NASH induction, and tissues were harvested for analysis.” left out\n(§3) […], […]+G, LRQNAC, OCA and Vehicle were administered by oral gavage at a volume of 10 mL/kg throughout the study. Dosages were calculated by daily body weight. […]\nThe viability, clinical signs and behavior were monitored daily. Body weight was recorded daily during the dosing period. […]"}, "[3]": {"test_system": "FATZO mouse model", "experiment": "Liver Oil Red O staining area in FATZO mice on WDF, Example 5", "details": "oral, 4 weeks, LIVRQNAC + G 3885 mg/kg, LRQNAC 2469 mg/kg, OCA 30 mg/kg/day", "source_text": "NASH was induced in 60 male FATZO mice by a western diet (Research Diet #D12079B; fat 40% kcal, protein 17% kcal, carbohydrate 43% kcal) supplemented with 500 fructose in the drinking water (WDF) during a 16 week induction phase. Diets and water were available ad libitum. Littermate control male FATZO mice fed with a control diet (n=6, Purina #5008; fat 17% kcal, protein 27% kcal, carbohydrate 56% kcal) and sterile water were set up for control purpose. Mice were housed in plastic cages with microisolator. Sterilized bedding was replaced once a week. Mice were housed three per cage and maintained on a twelve hour light cycle throughout study duration. Room temperature was monitored daily and maintained at 22-25° C. Body weight was recorded every week during the induction phase. […]\nas §3\nAperio Automatic Image Quantitation was employed to quantify positive pixels of immunohistochemical staining, Oil-Red 0, and Sirius Red staining. The Positive Pixel Count algorithm was used to quantify the percentage of a specific stain present in a scanned slide image. A range of color (range of hues and saturation) and three intensity ranges (weak, positive, and strong) were masked and evaluated. […]"}, "[4]": {"details": "score 0-3, oral, LIVRQNAC + G 3885 mg/kg, LRQNAC 2469 mg/kg, OCA 30 mg/kg/day"}}}
{"compound": "CC[C@H]1[C@@H](O)[C@@H]2[C@H](CC[C@]3(C)[C@@H]([C@H](C)CCC(=O)O)CC[C@@H]23)[C@@]2(C)CC[C@@H](O)C[C@@H]12", "note": "[OCA, 6α-ethyl-chenodeoxycholic acid]", "values": [{"measurement": "NAFLD activity score (NAS) compared to vehicle", "setting": "[1]", "result": "no significant effect"}, {"measurement": "Liver Pathology NAS", "setting": "[1]; oral, LIVRQNAC + G 3885 mg/kg, LRQNAC 2469 mg/kg, OCA 30 mg/kg/day", "result": "3.72 ± 0.147"}, {"measurement": "Liver Pathology Ballooning", "setting": "[1]; score 0-2, oral, LIVRQNAC + G 3885 mg/kg, LRQNAC 2469 mg/kg, OCA 30 mg/kg/day", "result": "0.94 ± 0.056"}, {"measurement": "Liver Pathology Inflammation", "setting": "[1]; [4]", "result": "1.0 ± 0.0"}, {"measurement": "Liver Pathology Steatosis", "setting": "[1]; [4]", "result": "1.78 ± 0.147"}, {"measurement": "Average blood glucose over the dosing period", "setting": "[2]", "result": "169.7 ± 6.3", "unit": "mg/dL"}, {"measurement": "Oil Red O (staining area)", "setting": "[3]", "result": "0.24 ± 0.021"}]}
